Literature values as cited in patent publication US20210353546A1, “DUAL RELEASE PHARMACEUTICAL COMPOSITIONS COMPRISING THE COMBINATION OF A BETA-3 ADRENORECEPTOR AGONIST AND A MUSCARINIC RECEPTOR ANTAGONIST” (Jubilant Pharma Holdings Inc., priority 2020, published 2021).
Where two headings read alike, the source gives them in different places.

Tests used:
[1] = not given; remark: listed apart in the source

In the case of `Nc1nc(CC(=O)Nc2ccc(CCNC[C@H](O)c3ccccc3)cc2)cs1` [Mirabegron, 2-(2-aminothiazol-4-yl)-N-[4-(2-{[(2R)-2-hydroxy2-phenylethyl]amino}ethyl)phenyl] acetamide], the Solubility (in dimethyl sulfoxide) is given as “soluble”, the Solubility (in methanol) is given as “soluble” and the Solubility (in water) is given as “practically insoluble”. The half-life ([1]; in vivo) was “approximately 50 hours” and the “bioavailability, food effect” value ([1]; presence of food in the Gastrointestinal Tract) was “affected by the presence of food”.
